{"source": "patent US20250235509A1", "about": "“Formulation and Method of Preparing Glucagon-like Peptide-1 (GLP-1) for Oral Administration” (priority 2024, published 2025)", "key": {"[1]": {"settings": "orally administered in combination with absorption enhancer such as Salcaprozate sodium (SNAC); cited from earlier work"}, "[2]": {"settings": "mouse, in vivo, po", "experimental": "(§1) A quantitative ELISA assay to determine the absorption rate was also performed. The experimental mouse was sacrificed and whole body fluid collected one hour after feeding with Liraglutide. The intensity of the color was compared with that of a standard curve constructed by standard Liraglutide.\n(§2) A quantitative ELISA assay was performed to determine the absorption rate, and the mice were sacrificed and whole body fluid collected one hour after feeding with Semaglutide GLP-1. […] The intensity of the color was compared with that of a standard curve constructed by standard Semaglutide GLP-1."}, "[3]": {"settings": "mouse, in vivo", "experimental": "(§3) A mouse at two weeks old was gavaged with Liraglutide, or not treated with Liraglutide to serve as a control mouse. Two hours later, the pancreas of the mouse was collected and homogenized, and a protein extract was centrifuged. Thereafter the ELISA essay was conducted.\n(§4) Experimental mice, at two weeks old, were gavaged with Semaglutide GLP-1 at 0.16 mg/mouse, and control mice received no orally administered Semaglutide GLP-1. Two hours later, the pancreas and brain were collected and homogenized, and protein extracts were subjected to an ELISA assay."}, "[4]": {"settings": "in vivo", "experimental": "(§5) The concentrations of each reagent are as follows: • Liraglutide: 1.5 mM • EDTA: 5 to 10 mM • Zinc acetate: 15-100 mM Referring to FIGS. 1-7, an enzyme-linked immunosorbent assay (ELISA) was performed on the sera of mice orally administered with Liraglutide following the PSIM process.\n(§6) In this assay, a mouse (at two weeks old) was gavaged with Liraglutide in contrasts to a control mouse to which no Liraglutide was administered. After two hours, serum was collected, and an ELISA assay performed.\n(§7) Two hours later, serum was collected, and an ELISA assay was performed."}, "[5]": {"assay": "Body weight change in mice given oral GLP-1 analog", "format": "in vivo, mouse", "settings": "for % Body Weight Change / Body Weight (Day 1) / Body Weight (Day 7): individual Exp. mice", "method": "A quantity of orally administered Semaglutide GLP-1 was prepared as discussed in FIG. 8, and orally given to mice (Exp.) for seven days, along with control mice (Control) to which no Semaglutide GLP-1 was orally administered. Body weight was measured at the beginning and on the seventh day. The results are reflected in the following table:\nIn one experiment, orally administered Tirzepatide GLP-1 caused weight loss in mice. A quantity of orally administered Tirzepatide GLP-1 was prepared as discussed above, and orally given to mice (Exp.) for five days, along with control mice (Control) to which no Tirzepatide GLP-1 was orally administered. Body weight was measured at the beginning and on the fifth day."}, "[6]": {"assay": "Quantitative ELISA assay of whole body fluid to determine the absorption rate", "settings": "oral; whole body fluid collected one hour after feeding; color intensity vs standard curve", "experimental": "as §1, §2"}, "[7]": {"assay": "ELISA assay of pancreas and brain extracts of orally dosed mice", "settings": "two hours after gavage at 0.16 mg/mouse, mice two weeks old", "experimental": "as §3, §4"}, "[8]": {"assay": "ELISA assay of sera/plasma of mice orally administered with PSIM-processed GLP-1 analog", "settings": "serum collected two hours after gavage, mouse two weeks old, vs control mouse", "experimental": "as §5, §6, §7"}, "[9]": {"system": "blood glucose", "assay": "Blood glucose in mice after oral glucose solution", "format": "in vivo, mouse", "settings": "fasted four hours, 50 mg oral glucose", "method": "The orally administered Liraglutide was prepared by incubating Liraglutide at 1.7 mM in 9.6 mM EDTA for two hours, followed by incubation of the mixture with 15 mM zinc acetate for twelve hours to produce a Liraglutide for oral administration. The experimental mice were orally given 0.5 mg Liraglutide, and the control mice were administered a vehicle solution for 5 days. Thereafter, experimental and control mice were fasted for four hours followed by an orally given 50 mg glucose solution. Three and a half hours later, blood glucose was determined. The control mice were given a non-Liraglutide vehicle (N=3).\nThe orally administered Semaglutide GLP-1 was prepared by incubating Semaglutide GLP-1 at 1.7 mM in 9.6 mM EDTA for two hours, followed by incubation of the mixture with 15 mM zinc acetate for twelve hours to produce a Semaglutide GLP-1 for oral administration. Experimental mice were orally given 0.5 mg Liraglutide, and control mice were given a vehicle solution for 5 days. Thereafter, experimental and control mice were fasted for four hours, followed by an orally given 50 mg glucose solution. Three and a half hours later blood glucose was determined. The control mice were given a non-Liraglutide vehicle (N=3).\nOrally administered Tirzepatide GLP-1 was also shown to lower blood glucose levels in mice. The orally administered Tirzepatide GLP-1 was prepared in the manner discussed above. Thereafter 0.15 mg of orally administered Tirzepatide GLP-1 was fed to mice for five days. The mice were fasted for four hours, then 50 mg of a glucose solution was orally given. Three hours later, blood glucose levels were determined. In three control mice, who received no orally administered Tirzepatide GLP-1, the glucose levels in mg/dl were 93, 95, and 88, respectively. In three experimental mice that received orally administered Tirzepatide GLP-1, the glucose levels were 50, 52, and 47, respectively. […]"}, "[10]": {"system": "blood glucose", "assay": "Glucose tolerance in human subject (blood glucose AUC)", "format": "in vivo", "method": "A human subject was orally given 10 mg Semaglutide GLP-1 prepared as described in FIG. 8 at −2 minutes. A control human subject was not administered any Semaglutide GLP-1 At time zero, 15 g glucose was orally given. Blood glucose levels were monitored every fifteen minutes thereafter for ninety minutes. The area-under-curve (AUC), which represents the quantity of glucose in the blood was then determined."}}, "note": "Where “and” joins values, the source holds several entries; their conditions need not be identical. Equal entries are not always repeated. Where two headings read alike, the source gives them in different places.", "data": [{"compound": "Semaglutide", "values": [{"measurement": "bioavailability", "setting": "[1]", "value": "about 0.8%"}]}, {"compound": "CCCCCCCCCCCCCCCC(=O)N[C@@H](CCC(=O)NCCCC[C@H](NC(=O)[C@H](C)NC(=O)[C@H](C)NC(=O)[C@H](CCC(N)=O)NC(=O)CNC(=O)[C@H](CCC(=O)O)NC(=O)[C@H](CC(C)C)NC(=O)[C@H](Cc1ccc(O)cc1)NC(=O)[C@H](CO)NC(=O)[C@H](CO)NC(=O)[C@@H](NC(=O)[C@H](CC(=O)O)NC(=O)[C@H](CO)NC(=O)[C@@H](NC(=O)[C@H](Cc1ccccc1)NC(=O)[C@@H](NC(=O)CNC(=O)[C@H](CCC(=O)O)NC(=O)[C@H](C)NC(=O)[C@@H](N)Cc1cnc[nH]1)[C@@H](C)O)[C@@H](C)O)C(C)C)C(=O)N[C@@H](CCC(=O)O)C(=O)N[C@@H](Cc1ccccc1)C(=O)N[C@H](C(=O)N[C@@H](C)C(=O)N[C@@H](Cc1c[nH]c2ccccc12)C(=O)N[C@@H](CC(C)C)C(=O)N[C@H](C(=O)N[C@@H](CCCNC(=N)N)C(=O)NCC(=O)N[C@@H](CCCNC(=N)N)C(=O)NCC(=O)O)C(C)C)[C@@H](C)CC)C(=O)O", "note": "[Liraglutide]", "values": [{"measurement": "absorption rate", "setting": "[2]", "value": "seventy two"}, {"measurement": "time at which substance appeared in the pancreas after gavage", "setting": "[3]", "value": "ninety"}, {"measurement": "presence of GLP-1 in orally dosed mouse vs control, all instances FIGS. 1-4", "setting": "[4]; po", "value": "increased presence of GLP-1"}, {"measurement": "presence in serum by ELISA (blue color)", "setting": "[4]; mouse", "value": "existence of Liraglutide in the serum"}]}, {"compound": "Semaglutide [Semaglutide GLP-1]", "values": [{"measurement": "% Body Weight Change", "setting": "[5]; Day 1 to Day 7 of oral dosing", "value": "−7% and +8%"}, {"measurement": "Body Weight (Day 1)", "setting": "[5]; beginning of seven days oral dosing", "value": "28 g (2×) and 24 g"}, {"measurement": "Body Weight (Day 7)", "setting": "[5]; seventh day of oral dosing", "value": "26 g (2×) and 28 g"}, {"measurement": "body weight outcome relative to control mice", "setting": "[5]; oral dosing for seven days", "value": "reduced weight gain or weight loss relative to the control mice"}, {"measurement": "absorption rate", "setting": "[6]", "value": "approximately seventy"}, {"measurement": "presence in brain extract by ELISA (blue color)", "setting": "[7]", "value": "presence of orally administered Semaglutide GLP-1 in the pancreas and brain"}, {"measurement": "presence in pancreas extract by ELISA (blue color)", "setting": "[7]", "value": "presence of orally administered Semaglutide GLP-1 in the pancreas and brain"}, {"measurement": "presence in serum by ELISA (blue color)", "setting": "[8]", "value": "existed in the experimental mouse serum"}, {"measurement": "blood glucose (average)", "setting": "[9]; 0.5 mg orally for 5 days, measured three and a half hours later, N=3", "value": 45.00}, {"measurement": "average difference in blood glucose, control mice vs treated mice", "setting": "[9]; 0.5 mg orally for 5 days, three and a half hours later", "value": "approximately 50%"}, {"measurement": "blood glucose area-under-curve (AUC)", "setting": "[10]; 10 mg orally at -2 minutes, 15 g oral glucose at time zero, monitored ninety minutes", "value": 232}, {"measurement": "AUC reduction vs control subject", "setting": "[10]; 10 mg orally, 15 g oral glucose, ninety minutes", "value": "twenty six"}]}, {"compound": "Tirzepatide [Tirzepatide GLP-1]", "values": [{"measurement": "Body Weight (Day 1)", "setting": "[5]; beginning of five days oral dosing", "value": "26 g and 24 g and 28 g"}, {"measurement": "% Body Weight Change", "setting": "[5]; oral dosing for five days", "value": "−18% and −4.1% and −7.1%"}, {"measurement": "Body Weight (Day 7)", "setting": "[5]; oral dosing for five days, text says measured on the fifth day", "value": "22 g and 23 g and 26 g"}, {"measurement": "body weight outcome relative to control mice", "setting": "[5]; oral dosing for five days", "value": "reduced weight gain or weight loss relative to the control mice"}, {"measurement": "glucose levels", "setting": "[9]; individual mice, 0.15 mg orally for five days, three hours later", "value": "50 mg/dL and 52 mg/dL and 47 mg/dL"}]}]}
